Assay results published in patent publication US20150259331A1, “PROTOZOAN PARASITE GROWTH INHIBITORS” (Northeastern University, priority 2014, published 2015).
Counter-ions that a name gives are not always drawn. Like-named read-outs stand apart in the source and are kept apart here.

Key:
L. major promastigote = L. major promastigote assay; format: cell-based
L. major amastigote = L. major amastigote assay; format: cell-based; conditions: Leishmania major
[1] = tested on: T. brucei brucei Lister 427; experiment: Trypanosome replication assay; format: cell-based, Trypanosoma brucei brucei; conditions: 48 h, concentration giving 50% inhibition of growth of T brucei brucei Lister 427 cells, 48 h, values ±7%, read-out: Tbb EC50
P. fal = P. fal assay of Table 13 (strain not given); format: cell-based, P. falciparum
T. cruzi = T. cruzi growth inhibition; format: cell-based, Trypanosoma cruzi; conditions: Trypanosoma cruzi; for inhibition at 10 µM: read-out: T. cruzi % inh at 10 μM
HepG2 cells = experiment: HepG2 cell toxicity (MTT) assay; format: cell-based; conditions: for CC50: Table 13, read-out: HepG2 TC50; for IC50: Homo sapiens, HepG2, 48 h, MTT, 48 hour incubation, read-out: HepG2 IC50
Description: Then 2 μL of DMSO (control) or different concentrations of drugs prepared from 200× DMSO stocks were added to the cultures. […] All experiments were repeated thrice in independent studies where each dose was administered in duplicate (total n=6). HepG2 Cell Toxicity Assay. The 384 well MTT cytotoxicity assay is a modification of the MTT method described by Ferrari et al. optimized for 384-well throughput, with modifications described below.
HepG2 Cell Toxicity assay. The 384 well MTT cytotoxicity assay is a modification of the MTT method described by Ferrari et al.^1 ENREF—26_ENREF—26_ENREF—26 optimized for 384 well throughput. […] 4.25 μL of diluted test compound was then added to the 38.3 μL of media in each well providing a 10 fold final dilution of compound. […] After a 48 hour incubation period, 8 μL of a 1.5 mg/ml solution of MTT diluted in complete MEM media was added to each well. All plates were subsequently incubated in the dark for 1 hour at room temperature. After incubation, the media and drugs in each well was removed by shaking plate over sink, the plates are then left to dry in hood for 15 minutes. […] Plates are put on a 3-D rotator for 15-30 minutes. Absorbance was determined in all wells using a Tecan iControl 1.6 Infinite plate reader.

P. falciparum D6 = P. falciparum D6 assay; format: cell-based; conditions: Plasmodium falciparum; strain D6
P. falciparum W2 = P. falciparum W2 assay; format: cell-based; conditions: Plasmodium falciparum; strain W2; read-out: P. falciparum W2 (EC50)
P. falciparum C235 = P. falciparum C235 assay; format: cell-based; conditions: Plasmodium falciparum; strain C235; read-out: P. falciparum C235 (EC50)

Row | Structure (SMILES) | EC50 (L. major promastigote; Leishmania major) [µM] | EC50 (L. major amastigote) [µM] | EC50 ([1]; Trypanosoma brucei) [µM] | EC50 (P. fal; Plasmodium falciparum) [µM] | EC50 (T. cruzi) [µM] | EC50 (L. major promastigote) [µM] | EC50 [1] [µM] | EC50 (P. fal) [µM] | EC50 (P. falciparum D6) [µM] | EC50 (P. falciparum W2) [µM] | EC50 (P. falciparum C235) [µM] | EC50 ([1]; listed as NEU-570) [µM] | CC50 (HepG2 cells) [µM] | IC50 (HepG2 cells) [µM] | inhibition at 10 µM (T. cruzi) [%]
1 | c1ccc(Nc2ncnc3ccc(-c4cccc(N5CCOCC5)c4)cc23)cc1 [Compound 23o, 6-(3-Morpholinophenyl)-N-phenylquinazolin-4-amine] | 9.4 | > 15 | 11 | – | 6.72 | – | – | – | 3.1 | 3.3 | 4.6 | – | – | 7.02 | –
2 | COc1ccc(Nc2ncnc3ccc(-c4ccc(S(=O)(=O)N5CCOCC5)cc4)cc23)cc1Cl [Compound 20d, N-(3-Chloro-4-methoxyphenyl)-6-(4-(morpholinosulfonyl)-phenyl)quinazolin-4-amine Hydrochloride] | 0.83 | 4.8 | 0.82 | – | – | – | – | – | 0.81 | 1.7 | 1.2 | – | – | > 15 | 43
3 | O=S(=O)(c1ccc(-c2ccc3ncnc(Nc4ccc(OCc5cccc(Cl)c5)c(Cl)c4)c3c2)cc1)N1CCOCC1 [Compound 20g, N-(3-Chloro-4-((3-chlorobenzyl)oxy)phenyl)-6-(4-(morpholinosulfonyl)phenyl)quinazolin-4-amine Hydrochloride] | 15 | 1.1 | 0.66 | – | – | – | – | – | 0.23 | 0.66 | 0.33 | – | – | > 15 | 4
4 | CS(=O)(=O)c1ccc(-c2ccc3ncnc(Nc4ccc(OCc5cccc(F)c5)c(Cl)c4)c3c2)cc1 [Compound 10t, N-(3-Chloro-4-((3-fluorobenzyl)oxy)phenyl)-6-(4-(methylsulfonyl)phenyl)quinazolin-4-amine] | 1.6 | 3.9 | 0.9 | – | 0.65 | – | – | – | 0.12 | 0.36 | 0.2 | – | – | > 15 | –
5 | Clc1cc(Nc2ncnc3ccc(-c4cccc(N5CCOCC5)c4)cc23)ccc1OCc1ccccc1 [Compound 23m, N-(4-(Benzyloxy)-3-chlorophenyl)-6-(3-morpholinophenyl)-quinazolin-4-amine] | 6.6 | > 15 | 0.23 | – | 1.3 | – | – | – | 0.79 | 1.7 | 0.72 | – | – | > 20 | –
6 | COc1cc(Nc2ncnc3ccc(-c4ccc(S(=O)(=O)N5CCOCC5)cc4)cc23)ccc1OCc1cccc(F)c1 [Compound 20o, N-(4-((3-Fluorobenzyl)oxy)-3-methoxyphenyl)-6-(4-(morpholinosulfonyl)phenyl)quinazolin-4-amine] | > 15 | > 15 | 1.88 | – | – | – | – | – | 0.44 | 0.65 | 0.6 | 1.9 | – | > 15 | 2

Now from value to compound, other results behind:

Row | EC50 (L. major promastigote; Leishmania major) [µM] | EC50 (L. major amastigote) [µM] | EC50 ([1]; Trypanosoma brucei) [µM] | EC50 (P. fal; Plasmodium falciparum) [µM] | EC50 (T. cruzi) [µM] | EC50 (L. major promastigote) [µM] | EC50 [1] [µM] | EC50 (P. fal) [µM] | EC50 (P. falciparum D6) [µM] | EC50 (P. falciparum W2) [µM] | EC50 (P. falciparum C235) [µM] | EC50 ([1]; listed as NEU-570) [µM] | Structure (SMILES) | CC50 (HepG2 cells) [µM] | IC50 (HepG2 cells) [µM] | inhibition at 10 µM (T. cruzi) [%]
7 | 0.44 | 4.4 | 0.39 | 0.41 | 33 | – | – | – | – | – | – | – | CN1CCCN(S(=O)(=O)c2ccc(-c3ccc4c(Nc5ccc(OCc6cccc(F)c6)c(Cl)c5)nccc4c3)cc2)CC1 [NEU-963, N-(3-Chloro-4-((3-fluorobenzyl)oxy)phenyl)-6-(4-((4-methyl-1,4-diazepan-1-yl)sulfonyl)phenyl)isoquinolin-1-amine] | – | – | –
8 | 1.3 | 2.2 | 0.73 | 0.086 | 4.7 | – | – | – | – | – | – | – | CN1CCCN(S(=O)(=O)c2ccc(-c3ccc4ccnc(Nc5ccc(OCc6cccc(F)c6)c(Cl)c5)c4c3)cc2)CC1 [NEU-962, N-(3-Chloro-4-((3-fluorobenzyl)oxy)phenyl)-7-(4-((4-methyl-1,4-diazepan-1-yl)sulfonyl)phenyl)isoquinolin-1-amine] | – | – | –
9 | 5.7 | 2 | 1 | 0.014 | 3.1 | – | – | – | – | – | – | – | CN1CCN(S(=O)(=O)c2ccc(-c3ccc4c(Nc5ccc(OCc6cccc(F)c6)c(Cl)c5)cnnc4c3)cc2)CC1 [NEU-1016, N-(3-Chloro-4-((3-fluorobenzyl)oxy)phenyl)-7-(4-((4-methylpiperazin-1-yl)sulfonyl)phenyl)cinnolin-4-amine] | – | – | –
10 | > 15 | 1.7 | 0.29 | 0.11 | > 50 | – | – | – | – | – | – | – | Fc1cccc(COc2ccc(Nc3nncc4ccc(-c5cccc(N6CCOCC6)c5)cc34)cc2Cl)c1 [NEU-1035, N-(3-Chloro-4-((3-fluorobenzyl)oxy)phenyl)-7-(3-morpholinophenyl)phthalazin-1-amine] | – | – | –
11 | 1.4 | > 3 | 1.2 | 0.061 | 2.7 | – | – | – | – | – | – | – | Fc1cccc(COc2ccc(Nc3ccnc4cc(-c5cccc(N6CCOCC6)c5)ccc34)cc2Cl)c1 [NEU-942, N-(3-Chloro-4-((3-fluorobenzyl)oxy)phenyl)-7-(3-morpholinophenyl)quinolin-4-amine] | > 5 | – | –
12 | > 3.4 | > 4 | 0.86 | 0.54 | > 50 | – | – | – | – | – | – | – | O=S(=O)(c1ccc(-c2ccc3cnnc(Nc4ccc(OCc5ccccc5)c(Cl)c4)c3c2)cc1)N1CCOCC1 [NEU-1036, N-(4-(Benzyloxy)-3-chlorophenyl)-7-(4-(morpholinosulfonyl)phenyl)phthalazin-1-amine] | > 5.2 | – | –
13 | – | – | – | – | – | > 15 | 1.1 | 0.082 | – | – | – | – | CN1CCN(S(=O)(=O)c2ccc(-c3ccc4ncc(C#N)c(Nc5ccc(OCc6cccc(F)c6)c(Cl)c5)c4c3)cc2)CC1 [NEU-993] | – | – | –
14 | > 15 | 1.9 | 0.98 | 0.13 | > 50 | – | – | – | – | – | – | – | CN1CCN(S(=O)(=O)c2ccc(-c3ccc4nncc(Nc5ccc(OCc6cccc(F)c6)c(Cl)c5)c4c3)cc2)CC1 [NEU-1003, N-(3-Chloro-4-((3-fluorobenzyl)oxy)phenyl)-6-(4-((4-methylpiperazin-1-yl)sulfonyl)phenyl)cinnolin-4-amine] | – | – | –
15 | – | – | 0.24 | 0.016 | 3.5 | – | – | – | – | – | – | – | O=S(=O)(c1ccc(-c2ccc3c(Nc4ccc(OCc5ccccc5)c(Cl)c4)ccnc3c2)cc1)N1CCOCC1 [NEU-944, N-(4-(Benzyloxy)-3-chlorophenyl)-7-(4-(morpholinosulfonyl)phenyl)quinolin-4-amine] | – | – | –
16 | > 15 | 2.2 | 1.4 | 0.24 | > 50 | – | – | – | – | – | – | – | Fc1cccc(COc2ccc(Nc3nncc4cc(-c5cccc(N6CCOCC6)c5)ccc34)cc2Cl)c1 [NEU-1037, N-(3-Chloro-4-((3-fluorobenzyl)oxy)phenyl)-6-(3-morpholinophenyl)phthalazin-1-amine] | – | – | –
17 | > 15 | > 15 | 1.8 | 0.04 | > 50 | – | – | – | – | – | – | – | CN1CCN(S(=O)(=O)c2ccc(-c3ccc4ccnc(Nc5ccc(OCc6cccc(F)c6)c(Cl)c5)c4c3)cc2)CC1 [NEU-950, N-(3-Chloro-4-((3-fluorobenzyl)oxy)phenyl)-7-(4-((4-methylpiperazin-1-yl)sulfonyl)phenyl)isoquinolin-1-amine] | – | – | –
18 | 2.7 | > 15 | 0.1 | 0.11 | > 50 | – | – | – | – | – | – | – | CN1CCN(S(=O)(=O)c2ccc(-c3ccc4c(Nc5ccc(OCc6cccc(F)c6)c(Cl)c5)nccc4c3)cc2)CC1 [NEU-951, N-(3-Chloro-4-((3-fluorobenzyl)oxy)phenyl)-6-(4-((4-methylpiperazin-1-yl)sulfonyl)phenyl)isoquinolin-1-amine] | – | – | –
